These results are taken from PubChem BioAssay (NCI).

Each structure is given as a SMILES string.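 Cells were grown in 96-well plates and exposed to each compound for 48 hours at five concentrations; endpoints were interpolated linearly between bracketing concentrations, or set to the highest concentration if not reached. Abbreviation: GI50, concentration required for 50% inhibition of growth. Definition used: TGI = concentration required for complete inhibition of growth.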 Where only a bound is given, the exact number is not on record here.

Some test systems named below: HCC-2998 colon; HCT-116 colon; HS 578T breast; KM12 colon; MDA-MB-231 breast; NCI-H226 lung; SF-295 CNS; SF-539 CNS; SN12C renal; U251 CNS.
Common to all, as to assay: NCI tumour cell line growth inhibition, 48 h

Regarding `O=C(OCc1ncc(-c2ccc(C(F)(F)F)cc2)c(NC2CCCCCC2)n1)c1c(F)c(F)c(F)c(F)c1F`, the GI50 in the experiment on HCC-2998 colon was 16.7 µM; in the experiment on HCT-116 colon, 8.46 µM; in the experiment on HS 578T breast, 16.2 µM; in the experiment on KM12 colon, 18.1 µM; in the experiment on MDA-MB-231 breast it was 9.93 µM; with NCI-H226 lung it was 5.59 µM. Further, the values for the GI50 with SF-295 CNS, in the experiment on SF-539 CNS and in the experiment with SN12C renal were 17.4 µM, 16.3 µM and 12.1 µM, respectively. Also, the TGI in the experiment on HCC-2998 colon is 32.7 µM; in the experiment with HCT-116 colon, 25.9 µM; in the experiment on HS 578T breast, 51.9 µM; in the experiment on KM12 colon, 42.5 µM; in the experiment on MDA-MB-231 breast, 23.2 µM; in the experiment with NCI-H226 lung, 21.2 µM. The TGI with SF-295 CNS came to 33.8 µM; with SF-539 CNS it was 30.7 µM; in the experiment with SN12C renal, 28 µM.

As for `O=Cc1cccc2c1Oc1c(cccc1C(=O)O)S2`, the TGI with HCC-2998 colon was more than 100 µM; in the experiment on HCT-116 colon, more than 100 µM; with HS 578T breast it was more than 100 µM; with KM12 colon, 44.3 µM; in the experiment on MDA-MB-231 breast it was more than 100 µM; in the experiment on NCI-H226 lung, more than 100 µM. Further, the TGI in the experiment on SF-295 CNS, with SF-539 CNS, with SN12C renal and in the experiment on U251 CNS was more than 100 µM in each case.

Take `C=C(Nc1ccc([N+](=O)[O-])cc1[N+](=O)[O-])c1c/c(=N\NC(N)=S)c2ccccc2o1`: the TGI in the experiment with HCC-2998 colon, with HCT-116 colon, in the experiment with HS 578T breast, with KM12 colon, with MDA-MB-231 breast and in the experiment with NCI-H226 lung was more than 100 µM throughout. Besides, the TGI with SF-295 CNS was more than 100 µM; with SF-539 CNS, 55.7 µM; in the experiment with SN12C renal, more than 100 µM; with U251 CNS, more than 100 µM.

For `CCC(CNc1cc(OC)cc2cccnc12)NC1CCCCC1` (stereo not drawn), the GI50 in the experiment on HCC-2998 colon is 19.3 µM; in the experiment on HCT-116 colon, 10.9 µM; in the experiment on HS 578T breast, 15.2 µM; in the experiment with KM12 colon, 27.6 µM; in the experiment with MDA-MB-231 breast, 40.7 µM; in the experiment on NCI-H226 lung, 86 µM. For the same molecule, the GI50 is 17.3 µM in the experiment with SF-295 CNS, 56.8 µM in the experiment with SF-539 CNS, more than 100 µM with SN12C renal and 43.3 µM with U251 CNS. Moreover, the TGI was 41.4 µM in the experiment on HCC-2998 colon; 27.9 µM in the experiment with HCT-116 colon; 95.6 µM in the experiment with HS 578T breast; more than 100 µM in the experiment on KM12 colon; more than 100 µM with MDA-MB-231 breast; more than 100 µM in the experiment with NCI-H226 lung. Moreover, the TGI in the experiment on SF-295 CNS was 45.8 µM; in the experiment on SF-539 CNS, more than 100 µM; in the experiment on SN12C renal, more than 100 µM; in the experiment on U251 CNS it was more than 100 µM.

As for `NC(=O)c1cccc(Nc2nccc(Nc3cccc4[nH]ncc34)n2)c1`, the GI50 with HCC-2998 colon was 14.7 µM; with HCT-116 colon, 8.58 µM; in the experiment on HS 578T breast, 0.557 µM; in the experiment on KM12 colon, 9.78 µM; with MDA-MB-231 breast, 8.02 µM; with NCI-H226 lung, 5.52 µM. The GI50 with SF-295 CNS was 15.4 µM; in the experiment with SF-539 CNS it was 6.24 µM; in the experiment with SN12C renal, 8.74 µM; in the experiment on U251 CNS it was 9.53 µM. In addition, the TGI was more than 25 µM in the experiment with HCC-2998 colon; more than 25 µM in the experiment with HCT-116 colon; 3.21 µM in the experiment with HS 578T breast; more than 25 µM in the experiment on KM12 colon; more than 25 µM in the experiment with MDA-MB-231 breast; more than 20.1 µM in the experiment on NCI-H226 lung. The TGI in the experiment on SF-295 CNS is more than 25 µM; in the experiment with SF-539 CNS it was more than 21.7 µM; in the experiment with SN12C renal it was more than 25 µM; in the experiment on U251 CNS, more than 25 µM.

For `COc1ccc(OC)c2c1[nH]c(=O)c1c3ncccc3cn21`, the GI50 was 4.44 µM with HCC-2998 colon; 1.85 µM in the experiment on HCT-116 colon; 5.37 µM in the experiment with HS 578T breast; 4.23 µM in the experiment with KM12 colon; 4.87 µM in the experiment with MDA-MB-231 breast; 2.41 µM in the experiment with NCI-H226 lung. Also, the GI50 in the experiment with SF-295 CNS is 2.92 µM; in the experiment on SF-539 CNS, 3.96 µM; in the experiment on SN12C renal, 4.48 µM; in the experiment on U251 CNS, 3.63 µM. Moreover, the TGI was more than 100 µM with HCC-2998 colon; 13.2 µM in the experiment on HCT-116 colon; more than 100 µM with HS 578T breast; more than 100 µM in the experiment with KM12 colon; more than 100 µM in the experiment on MDA-MB-231 breast; more than 100 µM with NCI-H226 lung. Further, the TGI in the experiment on SF-295 CNS was more than 100 µM; in the experiment with SF-539 CNS it was more than 100 µM; with SN12C renal, more than 100 µM; with U251 CNS it was 27.8 µM.

For the molecule `COc1ccccc1CNCCCN1C(=O)c2ccc3c4c(ccc(c24)C1=O)C(=O)N(CCCCNCCCN)C3=O`, the GI50 in the experiment on HCC-2998 colon is 1.12 µM; in the experiment with HCT-116 colon, 0.648 µM; in the experiment on HS 578T breast, 2.27 µM; in the experiment on KM12 colon, 2.53 µM; in the experiment with MDA-MB-231 breast, 2.64 µM; in the experiment on NCI-H226 lung, 2.26 µM. In addition, the GI50 in the experiment on SF-295 CNS was 3.65 µM; in the experiment with SF-539 CNS, 1.68 µM; in the experiment on SN12C renal, 0.704 µM; with U251 CNS, 0.831 µM. For the same molecule, the TGI in the experiment with HCC-2998 colon is 3.03 µM; in the experiment on HCT-116 colon, 1.94 µM; in the experiment with HS 578T breast it was 8.2 µM; with KM12 colon, 9.7 µM; in the experiment on MDA-MB-231 breast it was 13.2 µM; with NCI-H226 lung, 9.24 µM. In addition, the TGI is 17.4 µM with SF-295 CNS, 3.19 µM in the experiment on SF-539 CNS, 2.09 µM in the experiment on SN12C renal and 2.28 µM in the experiment on U251 CNS.

For the molecule `O=C1C=CC(=O)c2cc(Sc3ccccc3)c(=O)ccc21`, the TGI in the experiment on HCC-2998 colon stood at 35.3 µM; in the experiment on HCT-116 colon, 42.6 µM; in the experiment on HS 578T breast, 64.8 µM; in the experiment with KM12 colon it was 34.4 µM; in the experiment on MDA-MB-231 breast, 35.4 µM; in the experiment on NCI-H226 lung, 42.9 µM. The TGI with SF-295 CNS turned out to be 27.6 µM; with SF-539 CNS it was 37 µM; with SN12C renal, 33.9 µM; with U251 CNS it was 38.5 µM.

As to `Cc1cc(C)c(Cn2cnc3c(Cl)ncnc32)c(C)c1CCl`, the GI50 with HCC-2998 colon was 19 µM; in the experiment with HCT-116 colon, 68.8 µM; with HS 578T breast it was more than 100 µM; in the experiment with KM12 colon it was 31.1 µM; with MDA-MB-231 breast it was more than 100 µM; in the experiment with NCI-H226 lung, more than 100 µM. In addition, the GI50 was more than 100 µM in the experiment with SF-295 CNS, more than 100 µM in the experiment with SF-539 CNS, more than 100 µM in the experiment on SN12C renal and 2.77 µM with U251 CNS. In addition, the TGI was 46.7 µM in the experiment with HCC-2998 colon; more than 100 µM in the experiment with HCT-116 colon; more than 100 µM with HS 578T breast; more than 100 µM with KM12 colon; more than 100 µM with MDA-MB-231 breast; more than 100 µM in the experiment on NCI-H226 lung. Further, the TGI in the experiment on SF-295 CNS was more than 100 µM; in the experiment with SF-539 CNS it was more than 100 µM; in the experiment on SN12C renal, more than 100 µM; with U251 CNS, 45.4 µM.
